Experimental data reported in ChEMBL document CHEMBL3603796, “Lipid-lowering polyketides from a soft coral-derived fungus Cladosporium sp. TZP29” (Bioorg Med Chem Lett, 2015).
Activity calls are given as the source filed them. The calls are words filed in the database; no cut-off is given here.

Legend:
A549 = assay: Cytotoxicity against human A549 cells up to 50 uM by SRB assay; format: cell-based
HeLa = assay: Cytotoxicity against human HeLa cells up to 50 uM by SRB assay; format: cell-based
SMMC-7721 = assay: Cytotoxicity against human SMMC7721 cells up to 50 uM by SRB assay; format: cell-based
Laribacter hongkongensis = assay: Antibacterial activity against Laribacter hongkongensis by disc diffusion assay; format: functional
Micrococcus luteus = assay: Antibacterial activity against Micrococcus luteus by disc diffusion assay; format: functional, organism-based
uncultured Ruegeria sp. = assay: Antibacterial activity against Ruegeria sp. by disc diffusion assay; format: functional
Amphibalanus amphitrite = assay: Antifouling activity against Balanus amphitrite by settlement inhibition assay; format: functional, organism-based
[1] = Antifouling activity against Bugula neritina by settlement inhibition assay; format: functional
HepG2 = assay: Lipid lowering activity in human HepG2 cells assessed as decrease in oleic acid elicited lipid accumulation after 6 hrs by oil-red O staining method; format: functional, cell-based; conditions: HepG2, 6 h

Row | Compound | Activity (A549) | Activity (HeLa) | Activity (SMMC-7721) | Activity (Laribacter hongkongensis) | Activity (Micrococcus luteus) | Activity (uncultured Ruegeria sp.) | Activity (Amphibalanus amphitrite) | Activity [1] | IC50 (HepG2) [µM]
1 | C[C@@H](O)CCCCC[C@H](O)[C@@H]1C=CC(=O)O1 | Non-toxic | Non-toxic | Non-toxic | inactive | inactive | inactive | inactive | inactive | –
2 | CC[C@H](C)C(=O)O[C@H]1C[C@@H](C)C=C2C=C[C@H](C)[C@H](CC[C@@H]3C[C@@H](O)CC(=O)O3)[C@H]21 [LOVASTATIN] | – | – | – | – | – | – | – | – | 8.3
3 | C[C@@H](O)CCCCCC[C@H]1OC(=O)C[C@@H]1O | Non-toxic | Non-toxic | Non-toxic | – | – | – | – | – | –
